Assay results from US11111237B2, “Bicyclic compound and use thereof” (SK BIOPHARMACEUTICALS CO., LTD., priority 2019, dated 2021).

Biological target: PRMT5-MEP50 enzyme complex (Homo sapiens (Human), UniProt O14744)
Assay: PRMT5 enzyme activity in vitro assay (methylation of histone H4R3, ELISA absorbance at 450 nm)
Type: biochemical
Conditions: SAM, histone H4 peptide, room temperature 2 hours, 8 points from 10 μM to 0.128 nM
Procedure, shortened: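 Human PRMT5-MEP50 was prepared at 5 μg/mL with SAM at 2 μM and reacted 2 h at room temperature on plate-coated histone H4 (1-20) peptide. An 8-point 1:5 compound series ran from 10 μM to 0.128 nM. H4R3 methylation was detected by antibody/HRP ELISA at 450 nm to give IC50.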

Sequence of PRMT5-MEP50 enzyme complex (O14744 2-637): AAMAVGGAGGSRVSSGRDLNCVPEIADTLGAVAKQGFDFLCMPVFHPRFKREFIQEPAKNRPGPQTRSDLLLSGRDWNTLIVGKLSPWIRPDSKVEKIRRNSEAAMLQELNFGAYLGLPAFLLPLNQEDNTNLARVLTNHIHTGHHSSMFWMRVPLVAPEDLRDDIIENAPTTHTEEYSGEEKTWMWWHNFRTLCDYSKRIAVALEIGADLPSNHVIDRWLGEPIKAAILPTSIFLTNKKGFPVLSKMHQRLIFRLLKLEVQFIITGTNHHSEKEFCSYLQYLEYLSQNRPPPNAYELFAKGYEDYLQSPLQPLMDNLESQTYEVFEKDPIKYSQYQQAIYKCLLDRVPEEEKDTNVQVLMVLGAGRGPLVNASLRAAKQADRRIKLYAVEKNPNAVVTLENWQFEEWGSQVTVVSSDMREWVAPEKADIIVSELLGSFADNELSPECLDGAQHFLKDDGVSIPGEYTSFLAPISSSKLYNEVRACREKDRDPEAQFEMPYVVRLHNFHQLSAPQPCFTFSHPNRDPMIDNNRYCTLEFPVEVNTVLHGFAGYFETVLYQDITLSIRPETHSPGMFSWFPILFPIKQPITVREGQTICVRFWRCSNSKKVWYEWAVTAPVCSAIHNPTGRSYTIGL
Sequence of PRMT5-MEP50 enzyme complex (Q9BQA1 2-342 partner): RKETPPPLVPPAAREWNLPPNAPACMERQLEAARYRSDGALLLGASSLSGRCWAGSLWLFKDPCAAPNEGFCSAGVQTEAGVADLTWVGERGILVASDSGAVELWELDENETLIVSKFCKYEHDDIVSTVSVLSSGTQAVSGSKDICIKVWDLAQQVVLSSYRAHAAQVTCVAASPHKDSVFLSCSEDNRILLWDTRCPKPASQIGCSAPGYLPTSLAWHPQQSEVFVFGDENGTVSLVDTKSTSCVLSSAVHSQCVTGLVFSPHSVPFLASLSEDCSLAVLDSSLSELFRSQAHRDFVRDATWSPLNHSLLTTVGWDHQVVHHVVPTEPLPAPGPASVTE

| Compound | IC50 [nM] |
| --- | --- |
| CC(=O)N1CCCC(Oc2ccc3c(c2)OCCN(C[C@H](O)CN2CCc4ccccc4C2)C3=O)C1 (stereo partly drawn) [Example 79, 8-[(1-acetyl-3-piperidyl)oxy]-4-[(2R)-3-(3,4-dihydro-1H-isoquinolin-2-yl)-2-hydroxy-propyl]-2,3-dihydro-1,4-benzoxazepin-5-one] | 100 to 1000 |
| CC(=O)N1CCC(Oc2ccc3c(c2)OCCN(C[C@H](O)CN2CCc4ccccc4C2)C3=O)C1 (stereo partly drawn) [Example 80, 8-(1-acetylpyrrolidin-3-yl)oxy-4-[(2R)-3-(3,4-dihydro-1H-isoquinolin-2-yl)-2-hydroxy-propyl]-2,3-dihydro-1,4-benzoxazepin-5-one] | 100 to 1000 |
| CC(=O)N1CC[C@@H](Oc2ccc3c(c2)OCCN(C[C@H](O)CN2CCc4ccccc4C2)C3=O)C1 [Example 81, 8-[(3R)-1-acetylpyrrolidin-3-yl]oxy-4-[(2R)-3-(3,4-dihydro-1H-isoquinolin-2-yl)-2-hydroxy-propyl]-2,3-dihydro-1,4-benzoxazepin-5-one] | 1 to 100 |
| CC(=O)N1CC[C@H](Oc2ccc3c(c2)OCCN(C[C@H](O)CN2CCc4ccccc4C2)C3=O)C1 [Example 82, 8-[(3S)-1-acetylpyrrolidin-3-yl]oxy-4-[(2R)-3-(3,4-dihydro-1H-isoquinolin-2-yl)-2-hydroxy-propyl]-2,3-dihydro-1,4-benzoxazepin-5-one] | 100 to 1000 |
| CC(=O)N1CC(Oc2ccc3c(c2)OCCN(C[C@H](O)CN2CCc4ccccc4C2)C3=O)C1 [Example 83, 8-(1-acetylazetidin-3-yl)oxy-4-[(2R)-3-(3,4-dihydro-1H-isoquinolin-2-yl)-2-hydroxy-propyl]-2,3-dihydro-1,4-benzoxazepin-5-one] | 100 to 1000 |
| CCC(=O)N1CC(Oc2ccc3c(c2)OCCN(C[C@H](O)CN2CCc4ccccc4C2)C3=O)C1 [Example 84, 4-[(2R)-3-(3,4-dihydro-1H-isoquinolin-2-yl)-2-hydroxy-propyl]-8-(1-propanoylazetidin-3-yl)oxy-2,3-dihydro-1,4-benzoxazepin-5-one] | 100 to 1000 |
| O=C1c2ccc(OC3CN(C(=O)C4CC4)C3)cc2OCCN1C[C@H](O)CN1CCc2ccccc2C1 [Example 85, 8-[1-(cyclopropanecarbonyl)azetidin-3-yl]oxy-4-[(2R)-3-(3,4-dihydro-1H-isoquinolin-2-yl)-2-hydroxy-propyl]-2,3-dihydro-1,4-benzoxazepin-5-one] | 1 to 100 |
| COC(=O)N1CC(Oc2ccc3c(c2)OCCN(C[C@H](O)CN2CCc4ccccc4C2)C3=O)C1 [Example 86, methyl 3-[[4-[(2R)-3-(3,4-dihydro-1H-isoquinolin-2-yl)-2-hydroxy-propyl]-5-oxo-2,3-dihydro-1,4-benzoxazepin-8-yl]oxy]azetidin-1-carboxylate] | 100 to 1000 |
| CC(C)N1CCC(Oc2ccc3c(c2)OCCN(C[C@H](O)CN2CCc4ccccc4C2)C3=O)CC1 [Example 89, 4-[(2R)-3-(3,4-dihydro-1H-isoquinolin-2-yl)-2-hydroxy-propyl]-8-[(1-isopropyl-4-piperidyl)oxy]-2,3-dihydro-1,4-benzoxazepin-5-one] | 1 to 100 |
| O=C1c2ccc(OC3CCN(C4CC4)CC3)cc2OCCN1C[C@H](O)CN1CCc2ccccc2C1 [Example 90, 8-[(1-cyclopropyl-4-piperidyl)oxy]-4-[(2R)-3-(3,4-dihydro-1H-isoquinolin-2-yl)-2-hydroxy-propyl]-2,3-dihydro-1,4-benzoxazepin-5-one] | 1 to 100 |
| O=C1c2ccc(OC3CCN(C4CCC4)CC3)cc2OCCN1C[C@H](O)CN1CCc2ccccc2C1 [Example 91, 8-[(1-cyclobutyl-4-piperidyl)oxy]-4-[(2R)-3-(3,4-dihydro-1H-isoquinolin-2-yl)-2-hydroxy-propyl]-2,3-dihydro-1,4-benzoxazepin-5-one] | 100 to 1000 |
| CC(C)N1CC(Oc2ccc3c(c2)OCCN(C[C@H](O)CN2CCc4ccccc4C2)C3=O)C1 [Example 95, 4-[(2R)-3-(3,4-dihydro-1H-isoquinolin-2-yl)-2-hydroxy-propyl]-8-(1-isopropylazetidin-3-yl)oxy-2,3-dihydro-1,4-benzoxazepin-5-one] | 100 to 1000 |
| O=C1c2ccc(OC3CN(C4COC4)C3)cc2OCCN1C[C@H](O)CN1CCc2ccccc2C1 [Example 96, 4-[(2R)-3-(3,4-dihydro-1H-isoquinolin-2-yl)-2-hydroxy-propyl]-8-[1-(oxetan-3-ylyl)azetidin-3-yl]oxy-2,3-dihydro-1,4-benzoxazepin-5-one] | 100 to 1000 |

Continued, values first:

| IC50 [nM] | Compound |
| --- | --- |
| 100 to 1000 | CN1CC(Oc2ccc3c(c2)OCCN(C[C@H](O)CN2CCc4ccccc4C2)C3=O)C1 [Example 93, 4-[(2R)-3-(3,4-dihydro-1H-isoquinolin-2-yl)-2-hydroxy-propyl]-8-(1-methylazetidin-3-yl)oxy-2,3-dihydro-1,4-benzoxazepin-5-one] |
| 100 to 1000 | CCN1CC(Oc2ccc3c(c2)OCCN(C[C@H](O)CN2CCc4ccccc4C2)C3=O)C1 [Example 94, 4-[(2R)-3-(3,4-dihydro-1H-isoquinolin-2-yl)-2-hydroxy-propyl]-8-(1-ethylazetidin-3-yl)oxy-2,3-dihydro-1,4-benzoxazepin-5-one] |
| 100 to 1000 | CCN1CC(COc2ccc3c(c2)OCCN(C[C@H](O)CN2CCc4ccccc4C2)C3=O)C1 [Example 97, 4-[(2R)-3-(3,4-dihydro-1H-isoquinolin-2-yl)-2-hydroxy-propyl]-8-[(1-ethylazetidin-3-yl)methoxy]-2,3-dihydro-1,4-benzoxazepin-5-one] |
| 100 to 1000 | CN1CCC(Oc2ccc3c(c2)OCCN(C[C@H](O)CN2CCc4ccccc4C2)C3=O)C1 (stereo partly drawn) [Example 98, 4-[(2R)-3-(3,4-dihydro-1H-isoquinolin-2-yl)-2-hydroxy-propyl]-8-(1-methylpyrrolidin-3-yl)oxy-2,3-dihydro-1,4-benzoxazepin-5-one] |
| 100 to 1000 | CCN1CC[C@@H](Oc2ccc3c(c2)OCCN(C[C@H](O)CN2CCc4ccccc4C2)C3=O)C1 [Example 99, 4-[(2R)-3-(3,4-dihydro-1H-isoquinolin-2-yl)-2-hydroxy-propyl]-8-[(3R)-1-ethylpyrrolidin-3-yl]oxy-2,3-dihydro-1,4-benzoxazepin-5-one] |
| 100 to 1000 | CC(C)N1CCC[C@H]1COc1ccc2c(c1)OCCN(C[C@H](O)CN1CCc3ccccc3C1)C2=O [Example 101, 4-[(2R)-3-(3,4-dihydro-1H-isoquinolin-2-yl)-2-hydroxy-propyl]-8-[[(2S)-1-isopropylpyrrolidin-2-yl]methoxy]-2,3-dihydro-1,4-benzoxazepin-5-one] |
| 100 to 1000 | CN1CCC(COc2ccc3c(c2)OCCN(C[C@H](O)CN2CCc4ccccc4C2)C3=O)CC1 [Example 102, 4-[(2R)-3-(3,4-dihydro-1H-isoquinolin-2-yl)-2-hydroxy-propyl]-8-[(1-methyl-4-piperidyl)methoxy]-2,3-dihydro-1,4-benzoxazepin-5-one] |
| 100 to 1000 | CCN1CCC(COc2ccc3c(c2)OCCN(C[C@H](O)CN2CCc4ccccc4C2)C3=O)CC1 [Example 103, 4-[(2R)-3-(3,4-dihydro-1H-isoquinolin-2-yl)-2-hydroxy-propyl]-8-[(1-ethyl-4-piperidyl)methoxy]-2,3-dihydro-1,4-benzoxazepin-5-one] |
| 100 to 1000 | CN1CCOC(COc2ccc3c(c2)OCCN(C[C@H](O)CN2CCc4ccccc4C2)C3=O)C1 (stereo partly drawn) [Example 104, 4-[(2R)-3-(3,4-dihydro-1H-isoquinolin-2-yl)-2-hydroxy-propyl]-8-[(4-methylmorpholin-2-yl)methoxy]-2,3-dihydro-1,4-benzoxazepin-5-one] |
